Assays:
[1] = xn = mol fraction of the nth substance listed

CCCCC(O)CO (stereo not drawn) [1,2-hexanediol]
Details	surface tension liquid-gas [mN/m]
283.15 K	24.7
288.15 K	24.4
293.15 K	24.1
298.15 K	23.8
303.15 K	23.6
308.15 K	23.3

CCCCC(O)CO (stereo not drawn) [1,2-hexanediol] + O
surface tension liquid-gas [mN/m], [1]
Details	283.15 K	288.15 K	293.15 K	298.15 K	303.15 K	308.15 K
x1 = 0.001	55.1	54.5	54.3	53.8	53.3	52.7
x1 = 0.0016	47.5	47.3	47	46.6	46.3	45.6
x1 = 0.002	45.1	44.5	43.9	43.4	42.8	42.3
x1 = 0.0034	41.6	40.6	40	39.3	38.5	38.1
x1 = 0.0052	37.3	36.3	35.5	34.7	33.8	33
x1 = 0.0077	32.2	31.4	30.8	30	29.5	28.9
x1 = 0.0108	28.7	28.1	27.7	27.2	26.8	26.4
x1 = 0.014	27.6	26.9	26.3	25.7	25.2	24.8
x1 = 0.0175	26.4	25.9	25.7	25.3	24.8	24.4
x1 = 0.0251	26.2	25.9	25.5	25.2	25	24.7
x1 = 0.036	25.7	25.5	25.2	25	24.7	24.5
x1 = 0.046	25.7	25.4	25.2	24.9	24.7	24.4
x1 = 0.0514	25.7	25.4	25.2	24.9	24.7	24.4
x1 = 0.0655	25.6	25.4	25.1	24.9	24.4	24.1
x1 = 0.0831	25.6	25.3	25.1	24.8	24.5	24.1
x1 = 0.0968	25.1	24.9	24.6	24.4	24.3	24
x1 = 0.1119	24.9	24.7	24.4	24.1	23.9	23.6
x1 = 1	24.7	24.4	24.1	23.8	23.6	23.3

CC(O)CCCCO (stereo not drawn) [1,5-hexanediol]
Details	surface tension liquid-gas [mN/m]
283.15 K	34.6
288.15 K	34.3
293.15 K	34.1
298.15 K	33.9
303.15 K	33.7
308.15 K	33.5

CC(O)CCCCO (stereo not drawn) [1,5-hexanediol] + O
surface tension liquid-gas [mN/m], [1]
Details	283.15 K	288.15 K	293.15 K	298.15 K	303.15 K	308.15 K
x1 = 0.001	65.3	65	63.8	62.8	62.3	61.2
x1 = 0.0021	58.3	57.6	56.9	56.1	55.7	55
x1 = 0.0037	55.3	54.7	54.2	53.6	52.9	52.4
x1 = 0.0053	53	52.5	51.7	51.2	50.6	50.3
x1 = 0.0071	51	50.4	49.9	49.3	48.8	48.5
x1 = 0.0089	50	49.2	48.6	47.9	47.3	47
x1 = 0.0111	47.5	46.7	46.4	46	45.7	45
x1 = 0.0145	45.3	44.7	44.5	43.8	43.4	42.9
x1 = 0.0194	43	42.2	41.3	40.3	39.8	38.6
x1 = 0.0324	39.7	39.1	38.6	38	37.5	37
x1 = 0.0507	38	37.3	36.9	36.6	35.7	35
x1 = 0.0738	36.9	36.5	36.1	35.8	34.9	34.4
x1 = 1	34.6	34.3	34.1	33.9	33.7	33.5
